Measurements: patent publication US4599336A, “Derivatives of (E)-3-(4-oxo-4H-quinazolin-3-yl)-2-propenamide” (Hoffmann-La Roche Inc., priority 1983, dated 1986)

The compounds below were run on SRS-A Biosynthesis (antigen-induced bronchoconstriction) (assay: In Vivo Screening Procedure for SRS-A Synthesis Inhibitors in Guinea Pigs). Settings: 10 mg/kg iv; guinea pig.
Excerpt: Paralyzed, artifically ventilated, actively sensitized guinea pigs are pretreated with indomethacin (to divert the flow of endogenous arachidonic acid through the lipoxygenase pathway), pyrilamine maleate (to block any bronchoconstriction due to released histamine) and […] (to enhance the sensitivity of the guinea pig bronchoconstriction to SRS-A) prior to challenging the animal with antigen. Under these conditions the resulting antigen-induced bronchoconstriction has been characterized as being attributable to the synthesis and release of SRS-A in the guinea pig lung. Test compounds are initially studied for their inhibitory properties in this test system by the intravenous route (at 10 mg/kg).

SMILES	% Inhibition SRS-A Biosynthesis [%]
CC(C)c1ccc2ncn(/C=C/C(=O)NCCc3ccncc3)c(=O)c2c1	57
CC(C)c1ccc2ncn(/C=C/C(=O)NCCc3ccccn3)c(=O)c2c1	56
CC(C)c1ccc2ncn(/C=C/C(=O)NCCCCc3ccccn3)c(=O)c2c1 [drawing 25]	59
